Structures are written as SMILES.

For orientation: IC50 means the point on the concentration scale where inhibition reaches its midpoint.

This assay has as its target USP30 (Homo sapiens (Human), UniProt Q70CQ3). Description: USP30 biochemical IC50 assay. Particulars: fluorescence polarisation, TAMRA labelled peptide linked to ubiquitin; 30 min pre-incubation, 2 hr read; read-out: IC50 range. The protocol: USP30 Biochemical IC50 Assay
Dilution plates were prepared at 21 times the final concentration (2100 μM for a final concentration of 100 μM) in 50% DMSO in a 96-well polypropylene V-bottom plate (Greiner #651201). A typical 8-point dilution series to be 100, 30, 10, 3, 1, 0.3, 0.1, 0.03 μM final. Reactions were performed in duplicate in black 384 well plates (small volume, Greiner 784076) in a final reaction volume of 21 μl. Either 1 μl of 50% DMSO or diluted compound was added to the plate. USP30 was diluted in reaction buffer (40 mM Tris, pH 7.5, 0.005% Tween 20, 0.5 mg/ml BSA, 5 mM beta-mercaptoethanol) to the equivalent of 0.05 μl/well and 10 μl of diluted USP30 was added to the compound. Enzyme and compound were incubated for 30 min at room temp. Reactions were initiated by the addition of 50 nM of TAMRA labelled peptide linked to ubiquitin via an iso-peptide bond as fluorescence polarisation substrate. Reactions were read immediately after addition of substrate and following a 2 hr incubation at room temperature. Readings were performed on a Pherastar Plus (BMG Labtech). λ Excitation 540 nm; λ Emission 590 nm.
Background: Polarisation of emitted light reports the rotation of a fluorescent probe.

USP30, sequence (Q70CQ3 57-517): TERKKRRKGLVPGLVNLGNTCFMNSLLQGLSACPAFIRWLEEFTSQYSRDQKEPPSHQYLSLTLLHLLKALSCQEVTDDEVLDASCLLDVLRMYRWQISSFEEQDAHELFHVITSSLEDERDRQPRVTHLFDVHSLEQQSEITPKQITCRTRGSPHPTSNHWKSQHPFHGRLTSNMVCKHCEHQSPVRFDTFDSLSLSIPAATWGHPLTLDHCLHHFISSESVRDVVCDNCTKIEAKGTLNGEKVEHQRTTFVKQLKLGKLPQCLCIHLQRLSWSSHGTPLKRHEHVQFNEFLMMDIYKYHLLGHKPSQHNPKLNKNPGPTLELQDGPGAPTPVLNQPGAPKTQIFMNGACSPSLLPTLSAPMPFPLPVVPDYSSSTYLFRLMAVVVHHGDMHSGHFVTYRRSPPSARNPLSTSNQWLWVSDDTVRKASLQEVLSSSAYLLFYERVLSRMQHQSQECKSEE

Turning to `N#CN1CC[C@H](CNC(=O)c2cn3cc(-c4cn[nH]c4)ccc3n2)C1` [Example 75, (R)—N-((1-Cyanopyrrolidin-3-yl)methyl)-6-(H-pyrazol-4-yl)imidazo[1,2-a]pyridine-2-carboxamide], the IC50 lay in the range of 1 to 10 µM.
In the case of `N#CN1CC[C@H](CNC(=O)c2cn3cc(-c4ccn[nH]4)ccc3n2)C1` [Example 76], the IC50 lay within 1 to 10 µM.
Regarding `N#CN1CC[C@H](CNC(=O)c2cn3ccc(C4CC4)cc3n2)C1` [Example 77, (R)—N-((1-Cyanopyrrolidin-3-yl)methyl)-7-cyclopropylimidazo[1,2-a]pyridine-2-carboxamide], the IC50 was in the range of 0.1 to 1 µM.
With `N#CN1CC[C@H](CNC(=O)c2cn(Cc3ccccc3)cn2)C1` [Example 78, (R)-1-Benzyl-N-((1-cyanopyrrolidin-3-yl)methyl)-1H-imidazole-4-carboxamide] the figure was 0.1 to 1 µM.
Then `N#CN1CC[C@H](CNC(=O)c2cn(CC3CC3)cn2)C1` [Example 79, (R)—N-((1-Cyanopyrrolidin-3-yl)methyl)-1-(cyclopropylmethyl)-1H-imidazole-4-carboxamide], with 1 to 10 µM.
